Data published in ChEMBL document CHEMBL3132769, “Fragment growing to retain or alter the selectivity of anchored kinase hinge-binding fragments” (Medchemcomm, 2014).

Experiments:
[1] = system: Tyrosine-protein kinase ABL1 (Homo sapiens), P00519 [Q252H]; experiment: Inhibition of human truncated ABL Q252H mutant expressed in baculovirus assessed as substrate phosphorylation using fluorescence-labelled peptides as substrate at 0.2 uM after 90 mins by microfluidic peptide phosphorylation assay
[2] = biological target: MAP kinase-activated protein kinase 2 (Homo sapiens) (UniProt P49137); experiment: Inhibition of human full length MAPKAPK2 expressed in baculovirus assessed as substrate phosphorylation using fluorescence-labelled peptides as substrate at 0.2 uM after 90 mins by microfluidic peptide phosphorylation assay
[3] = biological target: Tyrosine-protein kinase ABL1 (Homo sapiens) (UniProt P00519); experiment: Inhibition of human full-length ABL expressed in baculovirus assessed as substrate phosphorylation using fluorescence-labelled peptides as substrate at 420 uM after 90 mins by microfluidic peptide phosphorylation assay
[4] = biological target: T1, Serine/threonine-protein kinase Sgk2 (Homo sapiens) (UniProt Q9HBY8); experiment: Inhibition of human full length SGK2 expressed in baculovirus assessed as substrate phosphorylation using fluorescence-labelled peptides as substrate at 2 uM after 90 mins by microfluidic peptide phosphorylation assay
T1 sequence (whole entry): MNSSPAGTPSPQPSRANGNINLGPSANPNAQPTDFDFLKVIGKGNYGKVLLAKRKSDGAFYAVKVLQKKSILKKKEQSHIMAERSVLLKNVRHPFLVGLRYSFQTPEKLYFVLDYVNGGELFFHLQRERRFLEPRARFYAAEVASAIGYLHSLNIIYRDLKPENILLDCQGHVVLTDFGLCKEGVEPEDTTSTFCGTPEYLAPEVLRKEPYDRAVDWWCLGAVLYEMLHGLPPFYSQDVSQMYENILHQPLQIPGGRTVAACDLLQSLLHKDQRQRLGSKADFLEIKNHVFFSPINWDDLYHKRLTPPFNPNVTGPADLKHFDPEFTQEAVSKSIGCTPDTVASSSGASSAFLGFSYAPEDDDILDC

[5] = biological target: Protein kinase C alpha type (Homo sapiens) (UniProt P17252); experiment: Inhibition of human truncated PKC alpha expressed in baculovirus assessed as substrate phosphorylation using fluorescence-labelled peptides as substrate at 95 uM after 90 mins by microfluidic peptide phosphorylation assay
[6] = system: Fibroblast growth factor receptor 2 (Homo sapiens), P21802 [N549H]; experiment: Inhibition of human FGFR2 N549H mutant catalytic domain expressed in baculovirus assessed as substrate phosphorylation using fluorescence-labelled peptides as substrate at 95 uM after 90 mins by microfluidic peptide phosphorylation assay
[7] = biological target: Fibroblast growth factor receptor 4 (Homo sapiens) (UniProt P22455); experiment: Inhibition of human FGFR4 catalytic domain expressed in baculovirus assessed as substrate phosphorylation using fluorescence-labelled peptides as substrate at […] after 90 mins by microfluidic peptide phosphorylation assay
[8] = biological target: Serine/threonine-protein kinase pim-1 (Homo sapiens) (UniProt P11309); experiment: Inhibition of human full length PIM1 expressed in baculovirus assessed as substrate phosphorylation using fluorescence-labelled peptides as substrate at […] after 90 mins by microfluidic peptide phosphorylation assay
[9] = biological target: Casein kinase I isoform delta (Homo sapiens) (UniProt P48730); experiment: Inhibition of human CK1D catalytic domain expressed in Escherichia coli cell assessed as substrate phosphorylation using fluorescence-labelled peptides as substrate at 0.06 uM after 90 mins by microfluidic peptide phosphorylation assay
[10] = biological target: MAP kinase-activated protein kinase 2 (Homo sapiens) (UniProt P49137); experiment: Inhibition of human full length MAPKAPK2 expressed in baculovirus assessed as substrate phosphorylation using fluorescence-labelled peptides as substrate at 0.06 uM after 90 mins by microfluidic peptide phosphorylation assay
[11] = biological target: Tyrosine-protein kinase ABL1 (Homo sapiens) (UniProt P00519); experiment: Inhibition of human full-length ABL expressed in baculovirus assessed as substrate phosphorylation using fluorescence-labelled peptides as substrate at 0.06 uM after 90 mins by microfluidic peptide phosphorylation assay
[12] = biological target: Insulin receptor (Homo sapiens) (UniProt P06213); experiment: Inhibition of human INSR catalytic domain expressed in baculovirus assessed as substrate phosphorylation using fluorescence-labelled peptides as substrate at 1000 uM after 90 mins by microfluidic peptide phosphorylation assay
[13] = biological target: T2, Serine/threonine-protein kinase BRSK2 (Homo sapiens) (UniProt Q8IWQ3); experiment: Inhibition of human truncated BRSK2 expressed in baculovirus assessed as substrate phosphorylation using fluorescence-labelled peptides as substrate at 1000 uM after 90 mins by microfluidic peptide phosphorylation assay
T2 sequence (whole entry): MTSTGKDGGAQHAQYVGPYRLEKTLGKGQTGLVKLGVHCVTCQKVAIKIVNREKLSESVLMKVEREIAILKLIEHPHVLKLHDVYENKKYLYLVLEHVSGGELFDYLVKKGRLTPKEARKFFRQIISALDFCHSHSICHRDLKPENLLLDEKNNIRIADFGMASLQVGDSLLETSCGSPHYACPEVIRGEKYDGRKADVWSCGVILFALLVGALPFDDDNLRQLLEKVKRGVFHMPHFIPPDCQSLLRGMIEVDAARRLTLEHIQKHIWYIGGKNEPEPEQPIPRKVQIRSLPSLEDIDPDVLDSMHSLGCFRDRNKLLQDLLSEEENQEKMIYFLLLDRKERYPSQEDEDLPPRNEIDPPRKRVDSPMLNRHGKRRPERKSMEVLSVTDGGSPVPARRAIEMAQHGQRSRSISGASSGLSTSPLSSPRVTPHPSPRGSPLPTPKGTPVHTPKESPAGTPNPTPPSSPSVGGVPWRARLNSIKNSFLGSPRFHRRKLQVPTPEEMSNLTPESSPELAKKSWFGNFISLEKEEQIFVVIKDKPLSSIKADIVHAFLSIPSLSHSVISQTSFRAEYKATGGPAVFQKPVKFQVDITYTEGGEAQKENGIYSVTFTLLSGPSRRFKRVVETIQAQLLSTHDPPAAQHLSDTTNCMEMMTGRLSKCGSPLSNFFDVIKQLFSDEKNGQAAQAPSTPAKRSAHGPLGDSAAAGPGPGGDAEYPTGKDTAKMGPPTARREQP

[14] = biological target: T3, Serine/threonine-protein kinase Sgk3 (Homo sapiens) (UniProt Q96BR1); experiment: Inhibition of human full length SGK3 expressed in baculovirus assessed as substrate phosphorylation using fluorescence-labelled peptides as substrate at 1000 uM after 90 mins by microfluidic peptide phosphorylation assay
T3 sequence (whole entry): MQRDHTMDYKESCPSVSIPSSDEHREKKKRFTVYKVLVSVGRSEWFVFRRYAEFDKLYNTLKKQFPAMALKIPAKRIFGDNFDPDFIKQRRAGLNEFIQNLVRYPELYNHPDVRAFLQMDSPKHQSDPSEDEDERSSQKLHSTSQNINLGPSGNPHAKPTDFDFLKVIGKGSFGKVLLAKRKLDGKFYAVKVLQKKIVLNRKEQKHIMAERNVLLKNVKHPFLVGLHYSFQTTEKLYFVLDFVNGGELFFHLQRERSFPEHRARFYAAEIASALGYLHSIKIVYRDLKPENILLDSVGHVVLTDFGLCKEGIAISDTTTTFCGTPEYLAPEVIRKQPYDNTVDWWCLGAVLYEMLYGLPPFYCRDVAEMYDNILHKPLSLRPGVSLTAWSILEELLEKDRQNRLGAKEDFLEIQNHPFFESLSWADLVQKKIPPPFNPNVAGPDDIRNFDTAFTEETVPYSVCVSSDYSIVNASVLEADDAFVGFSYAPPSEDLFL

MAP kinase-activated protein kinase 2 (Homo sapiens), sequence (P49137 whole entry, looked up): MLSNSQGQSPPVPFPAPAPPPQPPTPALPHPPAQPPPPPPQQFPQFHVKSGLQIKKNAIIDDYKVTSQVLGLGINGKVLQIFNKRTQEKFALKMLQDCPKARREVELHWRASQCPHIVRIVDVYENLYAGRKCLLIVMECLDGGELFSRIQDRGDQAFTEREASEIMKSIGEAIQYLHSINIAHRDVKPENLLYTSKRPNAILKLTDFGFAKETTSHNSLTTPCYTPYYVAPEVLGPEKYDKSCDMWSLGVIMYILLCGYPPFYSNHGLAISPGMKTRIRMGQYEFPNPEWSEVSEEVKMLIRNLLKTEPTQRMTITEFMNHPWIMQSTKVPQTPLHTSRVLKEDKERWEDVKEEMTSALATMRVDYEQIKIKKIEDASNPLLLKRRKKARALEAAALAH
Casein kinase I isoform delta (Homo sapiens), sequence (P48730 whole entry, looked up, the tested form may be a part, canonical isoform): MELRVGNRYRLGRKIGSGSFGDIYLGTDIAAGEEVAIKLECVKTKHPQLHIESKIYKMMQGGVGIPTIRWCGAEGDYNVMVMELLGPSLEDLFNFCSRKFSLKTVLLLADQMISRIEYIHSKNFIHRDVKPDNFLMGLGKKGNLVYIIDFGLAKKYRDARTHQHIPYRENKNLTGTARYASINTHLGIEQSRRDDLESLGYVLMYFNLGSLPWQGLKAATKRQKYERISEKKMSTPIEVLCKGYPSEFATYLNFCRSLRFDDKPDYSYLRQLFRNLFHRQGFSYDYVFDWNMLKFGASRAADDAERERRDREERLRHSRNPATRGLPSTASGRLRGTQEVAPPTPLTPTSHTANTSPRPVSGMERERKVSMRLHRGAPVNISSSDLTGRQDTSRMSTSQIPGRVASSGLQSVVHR
Fibroblast growth factor receptor 2 (Homo sapiens), P21802 [N549H], sequence (P21802 whole entry N549H, the tested form may be a part): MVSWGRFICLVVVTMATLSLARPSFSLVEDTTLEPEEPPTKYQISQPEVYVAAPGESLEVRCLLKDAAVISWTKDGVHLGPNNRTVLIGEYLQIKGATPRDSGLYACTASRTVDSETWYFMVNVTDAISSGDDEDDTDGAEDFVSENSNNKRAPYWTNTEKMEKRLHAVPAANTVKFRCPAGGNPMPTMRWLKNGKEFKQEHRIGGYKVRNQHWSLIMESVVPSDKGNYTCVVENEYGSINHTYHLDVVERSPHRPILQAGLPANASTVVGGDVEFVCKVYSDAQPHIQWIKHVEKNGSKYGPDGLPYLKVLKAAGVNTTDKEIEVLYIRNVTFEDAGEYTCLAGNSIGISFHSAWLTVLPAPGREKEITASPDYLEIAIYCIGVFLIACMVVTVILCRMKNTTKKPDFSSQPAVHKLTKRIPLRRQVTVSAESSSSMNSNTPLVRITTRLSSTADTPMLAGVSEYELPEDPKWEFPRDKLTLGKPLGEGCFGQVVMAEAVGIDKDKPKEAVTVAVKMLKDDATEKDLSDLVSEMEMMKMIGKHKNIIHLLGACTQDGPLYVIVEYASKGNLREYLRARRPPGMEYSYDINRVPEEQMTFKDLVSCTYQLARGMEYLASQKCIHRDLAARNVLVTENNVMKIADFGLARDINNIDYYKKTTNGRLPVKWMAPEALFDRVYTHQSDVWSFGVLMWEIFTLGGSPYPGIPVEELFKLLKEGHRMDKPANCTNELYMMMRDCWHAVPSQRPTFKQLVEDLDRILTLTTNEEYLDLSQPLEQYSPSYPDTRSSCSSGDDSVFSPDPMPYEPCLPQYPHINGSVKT
Fibroblast growth factor receptor 4 (Homo sapiens), sequence (P22455 22-802 limits assumed): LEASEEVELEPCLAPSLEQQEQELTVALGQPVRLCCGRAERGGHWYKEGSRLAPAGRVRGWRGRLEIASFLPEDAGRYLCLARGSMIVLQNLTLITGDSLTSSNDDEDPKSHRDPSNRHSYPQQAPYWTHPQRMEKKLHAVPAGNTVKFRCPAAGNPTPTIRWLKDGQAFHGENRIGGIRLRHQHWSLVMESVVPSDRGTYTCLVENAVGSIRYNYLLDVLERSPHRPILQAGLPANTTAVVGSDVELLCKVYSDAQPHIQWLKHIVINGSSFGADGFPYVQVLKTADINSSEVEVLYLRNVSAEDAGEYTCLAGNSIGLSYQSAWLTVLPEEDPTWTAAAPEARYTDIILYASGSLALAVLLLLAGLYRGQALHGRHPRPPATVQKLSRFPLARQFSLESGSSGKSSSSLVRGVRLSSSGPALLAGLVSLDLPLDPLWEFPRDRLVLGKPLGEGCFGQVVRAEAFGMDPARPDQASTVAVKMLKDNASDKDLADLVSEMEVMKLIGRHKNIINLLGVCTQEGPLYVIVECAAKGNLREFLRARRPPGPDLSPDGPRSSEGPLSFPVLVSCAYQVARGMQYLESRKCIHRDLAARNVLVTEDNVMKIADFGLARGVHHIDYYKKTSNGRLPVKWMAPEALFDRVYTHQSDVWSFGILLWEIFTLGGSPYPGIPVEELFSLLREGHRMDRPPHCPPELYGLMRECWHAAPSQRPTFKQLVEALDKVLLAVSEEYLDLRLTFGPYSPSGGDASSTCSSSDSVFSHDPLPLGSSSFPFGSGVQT
Serine/threonine-protein kinase pim-1 (Homo sapiens), sequence (P11309 whole entry, looked up, the tested form may be a part, canonical isoform): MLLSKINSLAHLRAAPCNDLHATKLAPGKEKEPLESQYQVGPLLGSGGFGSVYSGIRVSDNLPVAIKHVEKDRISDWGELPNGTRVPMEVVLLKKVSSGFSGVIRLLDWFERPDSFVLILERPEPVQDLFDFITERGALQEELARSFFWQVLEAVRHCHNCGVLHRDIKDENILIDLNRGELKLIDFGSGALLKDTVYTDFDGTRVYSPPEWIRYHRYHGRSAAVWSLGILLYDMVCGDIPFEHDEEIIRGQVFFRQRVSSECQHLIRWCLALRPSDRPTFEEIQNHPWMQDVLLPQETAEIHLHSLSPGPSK

Q: For `Clc1ccc(C2(c3ccc(-c4ncnc5[nH]cnc45)cc3)CCNCC2)cc1`, which inhibition [1] is on record?
A: 0%

Q: And the inhibition [2]?
A: 10.5%

Q: Which inhibition [3] does the source give for `c1nc(N2CCOCC2)c2nc[nH]c2n1` here?
A: 69%

Q: With `NC1CCN(c2ncnc3[nH]ccc23)CC1` as the compound, how does the inhibition [4] read?
A: 46.5%

Q: How did the inhibition [5] turn out when `NCCc1ccc(-c2ncnc3[nH]cnc23)cc1` was run?
A: 69.5%

Q: And the inhibition [6]?
A: 40%

Q: With `COC(=O)c1cnc(Nc2cnc(C#N)cn2)cc1NCC1CCNCC1` as the compound, how does the inhibition [7] read?
A: 1.5%

Q: What about the inhibition [8] of the same compound?
A: 7%

Q: How did the inhibition [9] turn out when `NC1(Cc2ccc(Cl)cc2)CCN(c2ncnc3[nH]ccc23)CC1` was run?
A: 0.5%

Q: What about the inhibition [10] of the same compound?
A: 0%

Q: And the inhibition [11]?
A: 13%

Q: Which inhibition [12] does the source give for `c1cnc2[nH]ccc2c1` here?
A: 29%

Q: And the inhibition [13]?
A: 28%

Q: And the inhibition [14]?
A: 80.5%
